In patent EP0417209B1, “COMPOSITIONS AND METHODS FOR ADMINISTERING […] ACTIVE COMPOUNDS” (priority 1988, dated 1990):
“And” between values parts separate entries of the source, which are not always exact repeats. Identical values can stand only once. Each block holds one compound with its values, some of them ahead of it.

Experiments:
[1] = set-up: species or system Wistar derived albino rats; details: rat, in vivo
Experimental: Sixteen Wistar derived albino rats, eight male (242-333 gms) and eight female (295-345 gms) were acclimated for seven days prior to beginning this study. During this period the rats were fed Purina(R) Rodent Chow, watered ad lib and housed in self-flushing stainless-steel cages.
The rats were randomly assigned to two groups of eight each (4 males and 4 females) and placed in metabolism cages. […] Blood samples were taken at 1, 2, 3 and 4 hours after dosing for serum salicylate analysis. Urine was collected if produced at the same time periods for salicylate analysis also. In an effort to maximize urine output the rats were given additional water at 1, 2, 3 and 4 hours by gavage (3 ml).
Blood and urine were collected and analyzed according to the method of Natleson. [Natelson, S. Techniques of Clinical Chemistry, ed. 3. p. 649, Charles C. Thomas, Pub. (1971)]. The study was terminated after the 4 hour collection time.
All statistics were calculated via Statistical Analysis System (SAS Institute, Inc., Box 8000, Cary, NC, 27511) software. The ANOVA (repeated measures model) procedure was used to determine differences in salicylate concentrations between groups.
The average values (X) and standard deviation (SD) for each group and time are given. Figure 1 is a histogram presentation of the data in Table 2. The significance level (P) of the differences between the two groups at each sample time in salicylate concentration in serum are given next to each set of histograms. Figure 2 is the serum salicylate profile over time for both groups of rats, standard deviation bars are included. The initial uptake rate (gastrointestinal) is calculated from the linearized curve in the first hour after dosing. Urine salicylate data is not presented in detail but will be discussed below. The groups are not broken down into male and female because there is no significant difference in the serum salicylate related to the sex of the animal.

[2] = cited from earlier work
movement disorders = assay: Supplementation of dogs with chronic movement disorders; clinical evaluation and owner's report; assay type: in vivo; details: given orally
Experimental: One hundred-eighty dogs of varying breed and age were fed 3 x 30 mgs/kg of the product of Example 1. All of these dogs suffered movement disorders.
The effect was measured seven days after supplementation and then again after six weeks. Last evaluation was after more than six months.
A number of different ailments were treated, both acute and chronic. In acute illness where symptoms are rapidly changing, one finds it hard to distinguish between the effect of supplementation and other factors.
Animals with the following chronic ailments were chosen: joint-injuries with secondary permanent changes, arthrosis, spondylosis, hip dysplasia, older dico-prolapse with secondary permanent changes, muscle-atrophy as a result of funtio laesa and senile wear-changes in support and motion-systems.
One hundred dogs qualify under the above criteria. Age or breed was not taken into consideration in this report.

[3] = set-up: species or system men; details: in vivo
Excerpt: The following example describes clinical tests comparing the product of Example 1 (test material) with L-ascorbic acid and citric acid (placebo), measuring intra-cellular and serum ascorbate levels, urinary ascorbate output and urinary oxalate excretion at various times after ingestion of standard doses of the test, L-ascorbic acid and placebo.
Twelve men, ages 27 to 45, were studied.
All were instructed that they should be on a low Vitamin C diet for one week prior to the study (no citrus products and no large amounts of green leafy vegetables).
Following overnight fast, blood and 24-hour urine samples were taken. White blood cell and 24-hour urinary ascorbate and oxalate levels were determined and correlated with serum ascorbate levels.
The 12 men were divided into three groups, and were given the following supplements: • (a) Test Group: 4000 MG* per day of the product Ex. 1. • (b) Ascorbate Group: 3000 MG of L-ascorbic per day. • (c) Citric Acid Group: 3000 MG of citric acid per day. *4000 MG is equivalent in ascorbate (iodine test) to 3000MG L-ascorbic acid.
All 12 continued on a low Vitamin C diet. Blood samples were taken at 0, 4, 8 and 24 hours after morning ingestion of the designated supplements. Urinary 24-hour ascorbate and oxalate levels were determined.
After a wash-out period (varying from two days to several days, due to job situation of participants), the groups were switched to another supplement, as follows: • (a) Test group to citrate group. • (b) Citrate group to ascorbate group. • (c) Ascorbate group to test group.
Supplements were taken at the same level (4000 MG of Ex. 1 product, 3000 MG of L-ascorbic and 3000 MG of citric acid) by all three groups. Blood samples were again drawn at 0, 4, 8 and 24 hours from time of ingestion. A 24-hour urine was also collected by all 12 participants at the end of the period. Again, all specimens were analyzed for their respective concentration of ascorbate and oxalate levels.
The analytical procedures utilized are described in: Clinical Chemistry, Principles and Techniques, edited by Richard J. Henry, Donald D. Cannon and James W. Windelman, Harper and Row, 1974 p. 1393-1398.
Standard Method of Clinical Chemistry, J. S. Roe, edited by Seligson D. New York, Academic Press, 1961, Vo. 3, p. 35.
In the quantitation of 24-hour urine oxalate, an aliquot of urine is shaken with an adsorbent which selectively binds the oxalate. The extracted urine is discarded and the oxalate is eluted from the adsorbent with dilute alkali.
Oxalate is oxidized to hydrogen peroxide and carbon dioxide by oxalate oxidase. The hydrogen peroxide reacts with 3-methyl-2-benzothiozolinone hydrazone (MBTH) and 3 (dimethylamino) benzoic acid (DMAB) in the presence of peroxidase to yield an indamine dye with a maximum absorbance at 590 NM.

[4] = Plasma Piroxicam after gavage, 3-day calcium threonate pretreatment (Example 13); assay type: in vivo, Wistar derived Albino rats; details: rat, po, 0.6 mg/kg, read-out: Piroxicam Plasma Concentration, average (X)
Experimental: Ten Wistar derived Albino rats, male (420-456 gms), were acclimated for seven days prior to beginning the study. During this period the rats were fed Purina(R) Rodent Chow, watered ad lib and housed in self-flushing stainless-steel cages.
The rats were randomly assigned to two groups of five each. Group A rats were gavaged daily for 3 days with 1.0 ml distilled water prior to beginning the study. Group AM rats were gavaged daily with 15 mg/kg/ml of calcium threonate for 3 days also. Threonate dosages were corrected for increases in body weights daily in insure the 15 mg/kg dose was maintained.
On day 4 the Group A rats were gavaged with Piroxicam at 0.6 mg/kg and group AM rats with 0.6 mg/kg Piroxicam and 15 mg/kg threonate. Plasma samples were taken at 4, 6, 8 and 10 hrs. post-dosing for plasma Piroxicam analysis.
Selective HPLC was used to analyze Piroxicam. The data was analyzed statistically by the SAS procedure. The ANOVA repeated measures procedure was used to determine differences in plasma Piroxicam concentration between groups.
The average (X) values for each group at each time period are given.

[5] = Plasma Piroxicam after gavage, combined administration with calcium threonate (Example 12); assay type: in vivo, Wistar derived albino rats; details: 0.6 mg/kg; for Plasma Piroxicam Concentration: listed as U.S.P. piroxicam; for concentration at 4 h: 4 hours after dosing
Experimental: Ten Wistar derived albino rats, male (375-411 gms), were acclimated for seven days prior to beginning the study. During this period the rats were fed Purina(R) Rodent Chow, watered ad lib and housed in self-flushing stainless-steel cages.
The rats were randomly assigned to two groups of five each and placed in Nalgene(R) cages. Group A received U.S.P. Piroxicam at 0.6 mg/kg, and Group AM received U.S.P. Piroxicam at 0.6 mg/kg plus calcium threonate at 15 mg/kg by gavage. Plasma samples were taken at 4, 6, 8 and 10 hours after dosing for plasma Piroxicam analysis.
Selective HPLC was used to analyze Piroxicam and the data analyzed via SAS. The ANOVA repeated measures procedure was used to determine differences in plasma Piroxicam concentrations between groups.
The average values (X) for each group and time are given. Figure 3 is the plasma profile of the data in Table 4.

Experimental for 3T3 mouse fibroblasts: A control group was incubated with Ringer's as a control.
(5 ul of 14C-L ascorbic acid was added, 10.0 mCi/mmol, 0.05 mCi/ml).
The flasks were then washed with 4 ml HBSS(-) and then were trypsinized with 0.1 ml trypsin-EDTA for 5 minutes. The cells were resuspended in 4 ml ice cold HBSS(-) to stop the enzymatic reaction. The cells were centrifuged for 10 minutes at 1000 G. The cells were then washed and resuspended in 4 ml HBSS(-). The cells were again centrifuged (10 min, 1000G), resuspended in 1.0 ml distilled H2O and sonicated for 90 seconds.
0.5 ml of each sample was used for counting ^14C and 0.5 ml was used for protein analysis using the Bradford method.

elimination rate [1]: 1.30 mg/h
uptake rate [1]: 4.40 mg/h
Urine salicylate ([1]; 60 min): approximately 9.1 mg%
SMILES: CC(=O)Oc1ccccc1C(=O)O [Aspirin]

SMILES: C=CCOc1ccc(CC(=O)O)cc1Cl [Alclofenac]
pKa [2]: 4.6

SMILES: O=C1O[C@H]([C@@H](O)CO)C(O)=C1O [calcium-ascorbate]
symptomatic relief of chronic deforming changes in the joint and skeleton system (movement disorders): Neither calcium-ascorbate alone nor L-ascorbic acid alone give such relief

7th Day Urine Ascorbate [3]: 459 MG/24 Hour
7th Day Urine Ascorbate % Change [3]: 4583%
24 Hour Urine Ascorbate [3]: 314.5 MG/24 Hour
24 Hour Urine Ascorbate % Change [3]: 2760.6%
24th Hour Urine Oxalate [3]: 63.8 MG/24 Hour
24th Hour Urine Oxalate % Change [3]: 162%
SMILES: O=C1O[C@H]([C@@H](O)CO)C(O)=C1O [L-ascorbic, L-ascorbic acid]

SMILES: CO[C@@]1(NC(=O)Cc2cccs2)C(=O)N2C(C(=O)O)=C(COC(N)=O)CS[C@@H]21 [Cefoxitin]
pKa [2]: 2.2

concentration at 4 h ([4]; 4 hrs post-dosing on day 4, group average): 1300 ng/mL
concentration at 6 h ([4]; 6 hrs post-dosing on day 4, group average): 1300 ng/mL
concentration at 8 h ([4]; 8 hrs post-dosing on day 4, group average): 1100 ng/mL
concentration at 10 h ([4]; 10 hrs post-dosing on day 4, group average): 900 ng/mL
Plasma Piroxicam Concentration ([5]; 8 hours after dosing, individual rat, 480 min): 1.9 µg/mL and 1.8 µg/mL and 1.6 µg/mL
Plasma Piroxicam Concentration ([5]; 10 hours after dosing, individual rat, 600 min): 1.4 µg/mL and 1.7 µg/mL and 2.0 µg/mL
concentration at 4 h ([5]; rat, plasma, po, group average, read-out: Plasma Piroxicam Concentration, average (X)): 1800 ng/mL
concentration at 4 h ([5]; rat, plasma, po, piroxicam 0.6 mg/kg (AM: plus threonate 15 mg/kg), individual rat, read-out: Plasma Piroxicam Concentration): 2200 ng/mL
concentration at 6 h ([5]; rat, plasma, po, 6 hours after dosing, group average, read-out: Plasma Piroxicam Concentration, average (X)): 1700 ng/mL
concentration at 8 h ([5]; rat, plasma, po, 8 hours after dosing, group average, read-out: Plasma Piroxicam Concentration, average (X)): 1800 ng/mL
concentration at 8 h ([5]; rat, plasma, po, 8 hours after dosing, individual rat, read-out: Plasma Piroxicam Concentration): 1700 ng/mL
concentration at 10 h ([5]; rat, plasma, po, 10 hours after dosing, group average, read-out: Plasma Piroxicam Concentration, average (X)): 1800 ng/mL
concentration at 10 h ([5]; rat, plasma, po, 10 hours after dosing, individual rat, read-out: Plasma Piroxicam Concentration): 2000 ng/mL
SMILES: CN1C(C(=O)Nc2ccccn2)=C(O)c2ccccc2S1(=O)=O [Prioxicam]

SMILES: CC1=C(CC(=O)O)c2cc(F)ccc2/C1=C\c1ccc([S+](C)[O-])cc1 (stereo not shown) [Sulindac]
pKa [2]: 4.7

SMILES: Cc1ccc(Cl)c(Nc2ccccc2C(=O)O)c1Cl [Meclofenamic Acid]
pKa [2]: 4.0

SMILES: O=C(O)[C@H](O)[C@@H](O)CO [Calcium-L-Threonate, calcium L-threonate]
uptake of 14C into the cells, average (3T3 mouse fibroblasts; average of three flasks): 1.19 DPM/ug
Uptake Ratio, average (3T3 mouse fibroblasts; average of three flasks, relative to Ringer's control): 1.86
uptake of 14C into the cells (3T3 mouse fibroblasts; single flask, 100 mg% calcium L-threonate 1 hour at 37°C, then 1.25 mg% ascorbic acid 20 minutes): 0.835 DPM/ug and 1.341 DPM/ug and 1.384 DPM/ug
Uptake Ratio (3T3 mouse fibroblasts; single flask, relative to average Ringer's control): 1.30 and 2.09 and 2.16
